Patent US20240400531A1, “HERBICIDAL MALONAMIDES CONTAINING A CONDENSED RING SYSTEM” (BASF SE, priority 2021, published 2024)

What was measured:
[1] = tested on: APESV; assay: greenhouse pre-emergence herbicidal test; type: in vivo, Apera spica-venti; settings: pre-emergence method, application rate 0.250 kg/ha, scale from 0 to 100
From the text: (§1) The culture containers used were plastic flowerpots containing loamy sand with approximately 3.0% of humus as the substrate. The seeds of the test plants were sown separately for each species.
For the pre-emergence treatment, the active ingredients, which had been suspended or emulsified in water, were applied directly after sowing by means of finely distributing nozzles. The containers were irrigated gently to promote germination and growth and subsequently covered with transparent plastic hoods until the test plants had rooted. This cover caused uniform germination of the test plants, unless this had been impaired by the active ingredients.
(§2) Depending on the species, the test plants were kept at 10-25° C. or 20-35° C., respectively.
(§3) The test period extended over 2 to 4 weeks. During this time, the test plants were tended, and their response to the individual treatments was evaluated.
(§4) Evaluation was carried out using a scale from 0 to 100. 100 means no emergence of the test plants, or complete destruction of at least the aerial moieties, and 0 means no damage, or normal course of growth. A good herbicidal activity is given at values of 65 to <90 and a very good herbicidal activity is given at values of 90 to 100.

[2] = tested on: ECHCG; assay: greenhouse post-emergence herbicidal test; type: in vivo, Echinocloa crus-galli; settings: post-emergence method, application rate 0.250 kg/ha, scale from 0 to 100
From the text: as §1
(§5) For the post-emergence treatment, the test plants were first grown to a height of 3 to 15 cm, depending on the plant habit, and only then treated with the active ingredients which had been suspended or emulsified in water. For this purpose, the test plants were either sown directly and grown in the same containers, or they were first grown separately as seedlings and transplanted into the test containers a few days prior to treatment.
as §2, §3, §4

[3] = tested on: AMARE; assay: greenhouse post-emergence herbicidal test; type: in vivo, Amaranthus retroflexus; settings: post-emergence method, application rate 0.250 kg/ha, scale from 0 to 100
From the text: as §1, §5, §2, §3, §4

SMILES	herbicidal activity against APESV [1]	herbicidal activity against ECHCG [2]	herbicidal activity against AMARE [3]
COC(C(=O)Nc1cccc2occc12)C(=O)N[C@H]1C=C[C@@H](C(=O)OC(C)C)C1 (stereo partly drawn) [I.6, isopropyl (1S,4R)-4-[[3-(benzofuran-4-ylamino)-2-methoxy-3-oxo-propanoyl]amino]cyclopent-2-ene-1-carboxylate]	very good (a very good herbicidal activity is given at values of 90 to 100)	very good (a very good herbicidal activity is given at values of 90 to 100)	
COC(C(=O)Nc1cccc2ocnc12)C(=O)N[C@H]1C=C[C@@H](C(=O)OC(C)C)C1 (stereo partly drawn) [I.11, isopropyl (1S,4R)-4-[[3-(1,3-benzoxazol-4-ylamino)-2-methoxy-3-oxo-propanoyl]amino]cyclopent-2-ene-1-carboxylate]			very good (a very good herbicidal activity is given at values of 90 to 100)
